Laboratory results reported in PMC3928712 (ACS chemical biology, 2013).

Molecular target: 2009 pandemic H1N1 (pH1N1) PAN endonuclease (Influenza A virus, UniProt C3W5S0)
Conditions: for improvement in inhibitory activity compared to 2: relative to compound 2

## N#Cc1cccc(-c2c[nH]c(=O)c(O)c2)c1 [Compound 3]
  improvement in inhibitory activity compared to 2: 20 fold

## O=c1[nH]cc(Br)cc1O [Compound 2]
Enzymatic assay, PAN endonuclease
  IC50: 16 µM

## O=c1[nH]c(-c2ccccc2)ccc1O [Compound 4]
  improvement in inhibitory activity compared to 2: 40 fold

## O=c1[nH]c(-c2ccc(F)cc2)c(-c2ccc(F)cc2)cc1O [Compound 6]
  improvement in inhibitory activity compared to 2: 400 fold
